{
  "source": "ChEMBL document CHEMBL4622904",
  "about": "“The discovery of azetidine-piperazine di-amides as potent, selective and reversible monoacylglycerol lipase (MAGL) inhibitors” (Bioorg Med Chem Lett, 2020)",
  "key": {"[1]": {"molecular_target": "Urokinase-type plasminogen activator (Homo sapiens) (UniProt P00749)", "experiment": "Inhibition of urokinase (unknown origin) at 10 uM relative to control"}, "Rattus norvegicus [2]": {"system": "Rattus norvegicus", "experiment": "Reversal of complete freund's adjuvant-induced thermal hyperalgesia in Sprague-Dawley rat model assessed as increase in paw withdrawal latency time at 1 to 30 mg/kg, po pre-exposed to thermal stimuli followed by CFA injection and subsequent compound administration relative to control", "assay_type": "functional"}, "Rattus norvegicus [3]": {"system": "Rattus norvegicus", "experiment": "Reversal of complete freund's adjuvant-induced thermal hyperalgesia in Sprague-Dawley rat model assessed as increase in paw withdrawal latency time at 1 to 30 mg/kg, po pre-exposed to thermal stimuli followed by CFA injection and subsequent compound administration measured after 30 to 180 mins", "assay_type": "functional, organism-based"}, "[4]": {"experiment": "Drug concentration in blood of Sprague-Dawley rat at 10 mg/kg, po", "assay_type": "ADME, organism-based", "details": "in vivo, read-out: Ct"}, "[5]": {"experiment": "Drug concentration in blood of Sprague-Dawley rat at 1 mg/kg, po", "assay_type": "ADME, organism-based", "details": "in vivo, read-out: Ct"}, "[6]": {"experiment": "Oral bioavailability in rat at 10 mg/kg", "assay_type": "ADME, organism-based", "details": "in vivo"}, "Rattus norvegicus [7]": {"system": "Rattus norvegicus", "experiment": "Effect on 2-AG level in brain of Sprague-Dawley rat 3 mg/kg, po (reference value: 11.96 nmol/g)", "assay_type": "functional"}, "[8]": {"experiment": "Cmax in rat at 10 mg/kg, po", "assay_type": "ADME, organism-based", "parameters": "dose 10 mg/kg, route oral", "details": "in vivo"}, "[9]": {"molecular_target": "Plasma kallikrein (Homo sapiens) (UniProt P03952)", "sequence (P03952 20-390 limits assumed)": "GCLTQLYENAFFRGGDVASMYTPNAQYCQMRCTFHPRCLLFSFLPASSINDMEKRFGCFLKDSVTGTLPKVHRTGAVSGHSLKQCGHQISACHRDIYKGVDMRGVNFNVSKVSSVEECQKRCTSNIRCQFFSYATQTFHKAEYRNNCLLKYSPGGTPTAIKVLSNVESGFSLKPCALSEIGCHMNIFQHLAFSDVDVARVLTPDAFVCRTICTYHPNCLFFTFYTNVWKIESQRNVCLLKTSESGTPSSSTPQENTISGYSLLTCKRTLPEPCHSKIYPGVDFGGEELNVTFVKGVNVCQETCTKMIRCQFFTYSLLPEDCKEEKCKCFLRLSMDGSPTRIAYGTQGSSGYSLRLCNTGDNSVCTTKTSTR", "sequence (P03952 391-638 limits assumed)": "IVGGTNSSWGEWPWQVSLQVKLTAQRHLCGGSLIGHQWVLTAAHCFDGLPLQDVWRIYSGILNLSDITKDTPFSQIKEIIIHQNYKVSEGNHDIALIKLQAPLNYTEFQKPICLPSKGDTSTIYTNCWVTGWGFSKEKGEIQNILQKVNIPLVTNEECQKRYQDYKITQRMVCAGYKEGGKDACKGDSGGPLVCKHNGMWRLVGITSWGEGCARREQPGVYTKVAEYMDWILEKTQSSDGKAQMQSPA", "experiment": "Inhibition of kallikrein (unknown origin) at 10 uM relative to control"}, "[10]": {"experiment": "Drug concentration in brain of Sprague-Dawley rat at 30 mg/kg, po", "assay_type": "ADME, organism-based", "details": "in vivo, read-out: Ct"}, "[11]": {"experiment": "Drug concentration in brain of Sprague-Dawley rat at 1 mg/kg, po", "assay_type": "ADME, organism-based", "details": "in vivo, read-out: Ct"}, "[12]": {"molecular_target": "T1, Myeloblastin (Homo sapiens) (UniProt P24158)", "T1 sequence (whole entry)": "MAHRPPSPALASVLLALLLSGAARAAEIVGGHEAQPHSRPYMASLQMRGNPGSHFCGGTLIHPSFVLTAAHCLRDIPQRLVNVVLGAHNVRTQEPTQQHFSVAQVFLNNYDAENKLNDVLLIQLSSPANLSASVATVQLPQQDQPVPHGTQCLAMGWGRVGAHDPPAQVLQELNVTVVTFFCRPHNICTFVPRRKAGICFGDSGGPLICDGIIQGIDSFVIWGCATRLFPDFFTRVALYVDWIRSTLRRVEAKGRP", "experiment": "Inhibition of proteinase 3 (unknown origin) at 10 uM relative to control"}, "[13]": {"experiment": "Volume of distribution at steady state in dog at 10 mg/kg, po", "assay_type": "ADME, organism-based, Canis lupus familiaris", "details": "in vivo"}, "[14]": {"experiment": "Tmax in monkey at 10 mg/kg, po", "assay_type": "ADME, organism-based, Macaca mulatta", "details": "rhesus monkey, in vivo"}, "[15]": {"molecular_target": "T2, Cathepsin G (Homo sapiens) (UniProt P08311)", "T2 sequence (whole entry)": "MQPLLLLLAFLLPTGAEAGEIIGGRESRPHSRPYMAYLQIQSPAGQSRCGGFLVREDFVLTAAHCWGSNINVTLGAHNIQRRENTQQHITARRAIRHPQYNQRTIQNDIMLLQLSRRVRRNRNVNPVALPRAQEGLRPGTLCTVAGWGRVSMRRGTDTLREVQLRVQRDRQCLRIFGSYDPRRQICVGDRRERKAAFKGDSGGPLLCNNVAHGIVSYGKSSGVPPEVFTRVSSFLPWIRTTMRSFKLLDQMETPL", "experiment": "Inhibition of cathepsin G (unknown origin) at 10 uM relative to control"}, "[16]": {"molecular_target": "Chymotrypsin (Homo sapiens) (UniProt Q99895+P17538+P40313+Q6GPI1)", "experiment": "Inhibition of chymotrypsin (unknown origin) at 10 uM relative to control", "assay_type": "protein assay"}, "[17]": {"molecular_target": "Plasminogen (Homo sapiens) (UniProt P00747)", "sequence (P00747 97-580 limits assumed)": "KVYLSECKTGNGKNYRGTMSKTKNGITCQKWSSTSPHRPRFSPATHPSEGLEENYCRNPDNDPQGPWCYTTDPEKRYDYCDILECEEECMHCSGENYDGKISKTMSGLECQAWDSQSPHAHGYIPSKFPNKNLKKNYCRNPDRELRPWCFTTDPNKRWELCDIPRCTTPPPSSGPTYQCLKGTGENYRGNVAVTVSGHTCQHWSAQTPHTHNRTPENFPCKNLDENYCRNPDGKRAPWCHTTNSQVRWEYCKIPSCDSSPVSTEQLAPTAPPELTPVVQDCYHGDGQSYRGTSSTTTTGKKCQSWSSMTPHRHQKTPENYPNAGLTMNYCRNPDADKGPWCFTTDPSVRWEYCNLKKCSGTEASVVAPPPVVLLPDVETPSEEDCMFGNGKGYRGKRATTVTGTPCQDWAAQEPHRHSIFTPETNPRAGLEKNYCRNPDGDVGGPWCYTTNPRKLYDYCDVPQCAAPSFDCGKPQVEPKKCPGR", "sequence (P00747 581-810 limits assumed)": "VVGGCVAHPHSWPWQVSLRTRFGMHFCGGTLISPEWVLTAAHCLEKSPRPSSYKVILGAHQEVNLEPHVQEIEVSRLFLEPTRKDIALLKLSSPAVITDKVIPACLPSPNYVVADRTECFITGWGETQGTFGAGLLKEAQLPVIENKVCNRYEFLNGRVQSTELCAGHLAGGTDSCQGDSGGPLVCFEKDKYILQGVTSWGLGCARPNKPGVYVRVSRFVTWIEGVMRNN", "experiment": "Inhibition of plasmin (unknown origin) at 10 uM relative to control"}, "[18]": {"experiment": "Half life in monkey at 10 mg/kg, po", "assay_type": "ADME, organism-based, Macaca mulatta", "details": "rhesus monkey, in vivo"}, "[19]": {"experiment": "Clearance in rat at 10 mg/kg, po", "assay_type": "ADME, organism-based", "details": "in vivo"}, "[20]": {"experiment": "AUClast in rat at 10 mg/kg, po", "assay_type": "ADME, organism-based", "parameters": "dose 10 mg/kg, route oral, time 0 - last", "details": "in vivo"}, "[21]": {"experiment": "Tmax in rat at 10 mg/kg, po", "assay_type": "ADME, organism-based", "details": "in vivo"}, "[22]": {"molecular_target": "T3, Fatty-acid amide hydrolase 1 (Homo sapiens, UniProt O00519)", "T3 sequence (O00519 whole entry)": "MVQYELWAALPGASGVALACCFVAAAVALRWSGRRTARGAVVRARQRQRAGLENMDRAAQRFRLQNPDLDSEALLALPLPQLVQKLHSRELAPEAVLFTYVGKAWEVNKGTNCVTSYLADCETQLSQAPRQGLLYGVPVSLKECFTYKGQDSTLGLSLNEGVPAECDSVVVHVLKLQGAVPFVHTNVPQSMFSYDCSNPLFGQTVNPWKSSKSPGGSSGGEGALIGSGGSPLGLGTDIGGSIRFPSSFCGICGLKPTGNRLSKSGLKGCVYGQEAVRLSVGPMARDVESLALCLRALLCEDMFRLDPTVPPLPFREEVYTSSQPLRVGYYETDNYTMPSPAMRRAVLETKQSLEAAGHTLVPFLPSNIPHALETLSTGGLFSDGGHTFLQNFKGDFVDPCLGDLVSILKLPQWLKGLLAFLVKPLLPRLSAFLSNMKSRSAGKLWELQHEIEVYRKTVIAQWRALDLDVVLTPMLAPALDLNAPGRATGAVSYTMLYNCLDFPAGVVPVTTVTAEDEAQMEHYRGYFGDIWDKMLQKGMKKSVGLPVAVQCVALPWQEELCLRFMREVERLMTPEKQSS", "experiment": "Inhibition of FAAH (unknown origin)"}, "Rattus norvegicus [23]": {"system": "Rattus norvegicus", "experiment": "Reversal of complete freund's adjuvant-induced thermal hyperalgesia in Sprague-Dawley rat model assessed as increase in paw withdrawal latency time at 30 mg/kg, po pre-exposed to thermal stimuli followed by CFA injection and subsequent compound administration", "assay_type": "functional, organism-based", "details": "TDE = time-dependent effect"}, "[24]": {"experiment": "Volume of distribution at steady state in monkey at 10 mg/kg, po", "assay_type": "ADME, organism-based, Macaca mulatta", "details": "rhesus monkey, in vivo"}, "[25]": {"experiment": "Oral bioavailability in dog at 10 mg/kg", "assay_type": "ADME, organism-based, Canis lupus familiaris", "details": "in vivo"}, "[26]": {"experiment": "Half life in dog at 10 mg/kg, po", "assay_type": "ADME, organism-based, Canis lupus familiaris", "details": "in vivo"}, "[27]": {"experiment": "AUClast in dog at 10 mg/kg, po", "assay_type": "ADME, organism-based, Canis lupus familiaris", "parameters": "dose 10 mg/kg, route oral, time 0 - last", "details": "in vivo"}, "[28]": {"experiment": "Cmax in monkey at 10 mg/kg, po", "assay_type": "ADME, organism-based, Macaca mulatta", "parameters": "dose 10 mg/kg, route oral", "details": "rhesus monkey, in vivo"}},
  "note": "Active and inactive are the calls of the source. No cut-off for these calls is given here.",
  "data": [
    {"smiles": "O=C(c1ccc2c(ccn2-c2ccc(F)cc2)c1)N1CC(N2CCN(C(=O)c3nccs3)CC2)C1", "values": [
      {"measurement": "inhibition", "setting": "[1]", "result": 2, "unit": "%"},
      {"measurement": "Activity", "setting": "Rattus norvegicus [2]", "result": 100, "unit": "%"},
      {"measurement": "Activity", "setting": "Rattus norvegicus [3]", "result": "Active"},
      {"measurement": "concentration", "setting": "[4]", "result": 519, "unit": "nM"},
      {"measurement": "concentration", "setting": "[5]", "result": 24.9, "unit": "nM"},
      {"measurement": "bioavailability", "setting": "[6]", "result": 45, "unit": "%"},
      {"measurement": "Activity", "setting": "Rattus norvegicus [7]", "result": 33.01, "unit": "nmol/g"},
      {"measurement": "Cmax", "setting": "[8]", "result": 710, "unit": "ng/mL"},
      {"measurement": "inhibition", "setting": "[9]", "result": 4, "unit": "%"},
      {"measurement": "concentration", "setting": "[10]", "result": 3540, "unit": "nM"},
      {"measurement": "concentration", "setting": "[11]", "result": 142, "unit": "nM"},
      {"measurement": "inhibition", "setting": "[12]", "result": 7, "unit": "%"},
      {"measurement": "Vdss", "setting": "[13]", "result": 0.56, "unit": "L/kg"},
      {"measurement": "Tmax", "setting": "[14]", "result": 2.67, "unit": "h"},
      {"measurement": "inhibition", "setting": "[15]", "result": 13, "unit": "%"},
      {"measurement": "inhibition", "setting": "[16]", "result": -3, "unit": "%"},
      {"measurement": "inhibition", "setting": "[17]", "result": 4, "unit": "%"},
      {"measurement": "half-life", "setting": "[18]", "result": 4.62, "unit": "h"},
      {"measurement": "CL/F", "setting": "[19]", "result": 19.2, "unit": "mL/min/kg"},
      {"measurement": "AUC(0-t)", "setting": "[20]", "result": 3730, "unit": "ng·h/mL"},
      {"measurement": "Tmax", "setting": "[21]", "result": 1.75, "unit": "h"},
      {"measurement": "IC50", "setting": "[22]", "result": 4, "unit": "µM"},
      {"measurement": "Activity", "setting": "Rattus norvegicus [23]", "result": "Tde"},
      {"measurement": "Vdss", "setting": "[24]", "result": 0.429, "unit": "L/kg"},
      {"measurement": "bioavailability", "setting": "[25]", "result": 79, "unit": "%"},
      {"measurement": "half-life", "setting": "[26]", "result": 7.46, "unit": "h"},
      {"measurement": "AUC(0-t)", "setting": "[27]", "result": 33600, "unit": "ng·h/mL"},
      {"measurement": "Cmax", "setting": "[28]", "result": 5300, "unit": "ng/mL"}
    ]}
  ]
}
